{"source": "patent US20230413811A1", "about": "(priority 2020, published 2023)", "key": {"[1]": {"assay": "Water solubility at different pH values", "type": "physicochemical", "conditions": "for solubility: water", "source_text": "The results are compiled in the table here below:"}, "[2]": {"tested_on": "Phytophthora infestans strain Pi96", "type": "in vivo"}, "[3]": {"conditions": "0.1 M carbonate buffer in water, aqueous buffer, pH 7, buffer 0.1M Carbonate"}, "[4]": {"conditions": "0.1 M citrate buffer in water, aqueous buffer, pH 4, buffer 0.1M Citrate"}, "[5]": {"conditions": "0.1 M glycine buffer in water, aqueous buffer, pH 10, buffer 0.1M Glycine"}}, "note": "Where two headings read alike, the source gives them in different places."}
{"smiles": "CCCCCCCCCCCCCCCCCC[S+](C)C.[I-]", "note": "[ODS-I, octadecyl dimethyl sulfonium iodide, reference compound]", "values": [{"measurement": "solubility", "setting": "[1]; [3]", "result": 80, "unit": "µg/mL"}, {"measurement": "solubility", "setting": "[1]; [4]", "result": 290, "unit": "µg/mL"}, {"measurement": "solubility", "setting": "[1]; [5]", "result": 30, "unit": "µg/mL"}, {"measurement": "solubility", "setting": "[1]; pH 5.5, aqueous buffer", "result": 120, "unit": "µg/mL"}]}
{"smiles": "CCCCCCCCCCCCCCCCCC[S+](C)C.[Cl-]", "note": "[ODS-Cl, octadecyl dimethyl sulfonium chloride]", "values": [{"measurement": "Disease Severity Index (%)", "setting": "[2]; 10 ppm, 3 dpi", "result": 10.3, "unit": "%"}, {"measurement": "Disease Severity Index (%)", "setting": "[2]; 10 ppm, 5 dpi", "result": 18.3, "unit": "%"}, {"measurement": "Disease Severity Index (%)", "setting": "[2]; 10 ppm, 7 dpi", "result": 39.7, "unit": "%"}, {"measurement": "Disease Severity Index (%)", "setting": "[2]; 10 ppm, 10 dpi", "result": 97.8, "unit": "%"}, {"measurement": "Fungicide efficacy (%) at 10 dpi", "setting": "[2]; 10 ppm, 10 dpi", "result": 0.0, "unit": "%"}, {"measurement": "Disease Severity Index (%)", "setting": "[2]; 50 ppm, 3 dpi", "result": 8.7, "unit": "%"}, {"measurement": "Disease Severity Index (%)", "setting": "[2]; 50 ppm, 5 dpi", "result": 15.6, "unit": "%"}, {"measurement": "Disease Severity Index (%)", "setting": "[2]; 50 ppm, 7 dpi", "result": 40.0, "unit": "%"}, {"measurement": "Disease Severity Index (%)", "setting": "[2]; 50 ppm, 10 dpi", "result": 89.4, "unit": "%"}, {"measurement": "Fungicide efficacy (%) at 10 dpi", "setting": "[2]; 50 ppm, 10 dpi", "result": 0.0, "unit": "%"}, {"measurement": "Disease Severity Index (%)", "setting": "[2]; 100 ppm, 3 dpi", "result": 5.5, "unit": "%"}, {"measurement": "Disease Severity Index (%)", "setting": "[2]; 100 ppm, 5 dpi", "result": 11.1, "unit": "%"}, {"measurement": "Disease Severity Index (%)", "setting": "[2]; 100 ppm, 7 dpi", "result": 27.8, "unit": "%"}, {"measurement": "Disease Severity Index (%)", "setting": "[2]; 100 ppm, 10 dpi", "result": 71.8, "unit": "%"}, {"measurement": "Fungicide efficacy (%) at 10 dpi", "setting": "[2]; 100 ppm, 10 dpi", "result": 12.5, "unit": "%"}, {"measurement": "Disease Severity Index (%)", "setting": "[2]; 500 ppm, 3 dpi", "result": 0.0, "unit": "%"}, {"measurement": "Disease Severity Index (%)", "setting": "[2]; 500 ppm, 5 dpi", "result": 0.0, "unit": "%"}, {"measurement": "Disease Severity Index (%)", "setting": "[2]; 500 ppm, 7 dpi", "result": 0.0, "unit": "%"}, {"measurement": "Disease Severity Index (%)", "setting": "[2]; 500 ppm, 10 dpi", "result": 0.0, "unit": "%"}, {"measurement": "Fungicide efficacy (%) at 10 dpi", "setting": "[2]; 500 ppm, 10 dpi", "result": 100.0, "unit": "%"}, {"measurement": "Disease Severity Index (%)", "setting": "[2]; 1000 ppm, 3 dpi", "result": 0.0, "unit": "%"}, {"measurement": "Disease Severity Index (%)", "setting": "[2]; 1000 ppm, 5 dpi", "result": 0.0, "unit": "%"}, {"measurement": "Disease Severity Index (%)", "setting": "[2]; 1000 ppm, 7 dpi", "result": 0.0, "unit": "%"}, {"measurement": "Disease Severity Index (%)", "setting": "[2]; 1000 ppm, 10 dpi", "result": 0.0, "unit": "%"}, {"measurement": "Fungicide efficacy (%) at 10 dpi", "setting": "[2]; 1000 ppm, 10 dpi", "result": 100.0, "unit": "%"}, {"measurement": "control of the disease (late blight)", "setting": "[2]; 1000 ppm, preventive treatment", "result": "full control"}, {"measurement": "dose from which efficient to protect potato leaves against late blight", "setting": "[2]; preventive treatment, detached potato leaves", "result": "≥ 100", "unit": "ppm"}, {"measurement": "solubility", "setting": "[1]; [3]", "result": 280, "unit": "µg/mL"}, {"measurement": "solubility", "setting": "[1]; [4]", "result": 1320, "unit": "µg/mL"}, {"measurement": "solubility", "setting": "[1]; [5]", "result": 940, "unit": "µg/mL"}, {"measurement": "solubility in water compared with octadecyl dimethyl sulfonium iodide", "setting": "[1]; comparison chloride vs iodide", "result": "higher solubility in water"}, {"measurement": "pH at which the water solubility has a minimum", "setting": "[1]; solubility increases below and above this pH", "result": "~7.0"}, {"measurement": "solubility", "setting": "[1]; pH 2.2, aqueous buffer", "result": 1650, "unit": "µg/mL"}]}
